From patent US20140024839A1, “FULLERENE DERIVATIVE, AND METHOD OF PREPARING THE SAME” (RICOH COMPANY, LTD., priority 2012, published 2014)

Assay: Solubility in o-dichlorobenzene (saturated solution, HPLC with standard curves)
Assay type: physicochemical
Conditions: saturated o-dichlorobenzene solution at 25° C., filtered 0.45 μm, HPLC 254 nm
Description: Solubilities of the fullerene derivatives having the formulae (1a) to (5a) of the present invention in Examples 1 to 5 and the fullero pyrrolidine in Application Examples 1 to 5 in o-dichlorobenzene were evaluated by the following method. A 0.1 mM o-dichlorobenzene solution and a 1.0 mM o-dichlorobenzene solution of each of the fullerene derivatives and the fullero pyrrolidine were prepared, and diluted fivefold with THF for HPLC. Ten (10) μL of the diluted solution was analyzed by a high-speed liquid chromatograph (LC-2010HT from Shimadzu Corp.; developing solvent: THF/ion-exchanged water=60/40; analysis time: 60 min; and detection wavelength: 254 nm) to prepare a chromatogram. Standard curves of the known concentrations (0.1 mM and 1.0 mM) were obtained therefrom. Next, a saturated o-dichlorobenzene solution of each of the fullerene derivatives and the fullero pyrrolidine were prepared at 25° C. After the saturated solution was filtered with a 0.45 μm filter, it was diluted hundredfold with THF for HPLC. Ten (10) μL of the diluted solution was analyzed by the same method mentioned above to prepare a chromatogram. A weight of the fullerene derivative dissolved in 1 mL of o-dichlorobenzene was determined as solubility using a peak area value of the chromatogram from the saturated solution and the standard curves.

| Structure (SMILES) | Weight of the fullerene derivative dissolved in 1 mL of o-dichlorobenzene [mg] |
| --- | --- |
| CCCCCCCCCCCCC1N(c2ccc(OC(=O)OC(C)(C)C)cc2)CC23C4=c5c6c7c8c9c%10c%11c%12c%13c%14c%15c%16c(c5c(c%15%12)c%106)C12C1C%162CC15c1c6c%10c%12c%15c%16c%17c%18c%19c%20c%21c%22c%23c%24c(c1c%12c(c%21%24)c%19%15)C5C3C%23C4C7C%22C8C%20C%18C9C%11C%17C%13C%16C%10C%14C62 (stereo not drawn) [formula (5a)] | 280 |
| CC(C)(C)OC(=O)Oc1ccc(N2CC34C5=c6c7c8c9c%10c%11c%12c%13c%14c%15c%16c%17c(c6c(c%16%13)c%117)C3(C2C(C)(C)C)C2C%173CC26c2c7c%11c%13c%16c2c2c%17c%18c%19c%20c%21c%22c%23c(c-%13c%21c%18%16)C(C%14C%23C%12C%10C%22C%20C9C9C8C5C(C%17C%199)C4C26)C%11C%15C73)cc1 (stereo not drawn) [formula (3a)] | 107 |
| CCCCCCCCCC1N(c2ccc(OC(=O)OC(C)(C)C)cc2)CC23C4=c5c6c7c8c9c%10c%11c%12c%13c%14c%15c%16c(c5c(c%15%12)c%106)C12C1C%162CC15c1c6c%10c%12c%15c%16c%17c%18c%19c%20c%21c%22c%23c%24c(c1c%12c(c%21%24)c%19%15)C5C3C%23C4C7C%22C8C%20C%18C9C%11C%17C%13C%16C%10C%14C62 (stereo not drawn) [formula (4a)] | 159 |
